Results from patent US20080181882A1, “Neurgulin 1 (NRG1) - ErbB4 signaling as a target for the treatment of schizophrenia” (The University of Pennsylvania, priority 2006, published 2008).
“Also recorded” adds a separate entry of the source.

Tests used:
[1] = target: T1, erbB4 (Homo sapiens, UniProt Q15303); assay: NRG1 stimulation-induced erbB4 tyrosine phosphorylation in postmortem brain tissue (erbB4 IP, phosphotyrosine immunoblot); assay type: cell-based; details: postmortem PFC tissue stimulated 37° C. 30 min; NRG1-GST or GST 200 ng/ml; NMDA 10 μM + 1 μM glycine
T1 construct: Postmortem PFC tissues were gradually thawed and sliced using a McIlwain tissue chopper; from tissue; host or cells: postmortem human prefrontal cortex (Brodmann areas 9, 10 and/or 46), schizophrenic and control subjects
Description: Postmortem PFC tissues were gradually thawed and sliced using a McIlwain tissue chopper (200 μm×200 μm×3 mm). Tissue slices ([…]) were suspended in ice-cold Krebs-Ringer solution containing 118 mM NaCl, 4.8 mM KCl, 1.3 mM CaCl2, 1.2 mM KH2 PO4, 1.2 mM MgSO4, 25 mM NaHCO3, 10 mM glucose, 100 μM ascorbic acid, […] leupeptin, 0.2 mM PMSF, 25 μg/ml pepstatin A and 0.01 U/ml soybean trypsin inhibitor (pH 7.4). We incubated ˜20 mg of tissue with Krebs-Ringer solution containing either 200 ng/ml GST fusion protein or a mixture of neuregulin-1α-GST and neuregulin-1β-GST (200 ng/ml each), at 37° C. for 30 min. During stimulation, the incubation mixture was aerated with 95% O2, 5% CO2 every 10 min for 1 min. Ligand stimulation was terminated by adding of 1 ml ice-cold Ca^2+-free Krebs-Ringer solution containing 0.5 mM EGTA. Tissue slices were harvested by a brief centrifugation and homogenized in 0.25 ml ice-cold immunoprecipitation buffer (same make-up as homogenization buffer described above). The homogenates was centrifuged at 800 g for 10 min and the supernatant sonicated for 10 s. The proteins were solubilized in 0.5% digitonin, 0.2% sodium cholate and 0.5% NP-40 for 60 min. Lysates were cleared by centrifugation at 50,000 g for 5 min and diluted with 0.75 ml of immunoprecipitation buffer. Protein concentrations were determined using the Bradford method (Bio-Rad). […]

[2] = tested on: erbB4; assay: NRG1-induced erbB4 activation in PFC slices of mice after chronic haloperidol treatment; assay type: in vivo, mouse; details: chronic haloperidol implant, 12 weeks
Description: (A) […] slices of PFCs of control and haloperidol treated mice were incubated with or without NRG 1 for 30 min. Tissue lysates were immunoprecipitated for erbB4 and were probed with antiphosphotyrosine or anti-erbB4. (B) Densitometric analysis of erbB4 activation in (A). Graph constructed for the ratios of the intensities for pY-erbB4 over erbB4 for control and haloperidol treated mice. NRG1 induced tyrosine phosphorylation was attenuated in haloperidol treated mice (t(6)=[…]);
(§1) Adult CH3 mice were implanted with a Medisorb bioabsorbable polymer disc (Alkermes Inc.), fabricated with haloperidol (n=7) or polymer vehicle only (n=7). These implants were previously shown to release haloperidol for at least 5 months with a calculated release rate of approximately 2 mg/kg per day. After 12 weeks of treatment, mice were sacrificed and the pooled serum haloperidol concentration was measured. Animal experiments were approved by the Institutional and Animal Care and Use Committee of the University of Pennsylvania.
To assess potential confounding effects of demographic or clinical variables, the levels of NRG1 and erbB4 isoforms were assessed, as well as the activation of erbB4, ERK and AKT, for correlations with sex, age, brain pH, postmortem interval and, for the schizophrenia group, exposure to an antipsychotic drug 1 month before death. No significant correlations were found. […]

[3] = Serum haloperidol concentration in implanted mice; assay type: in vivo; details: CH3, mouse, other: implanted bioabsorbable polymer disc, pooled serum, mice with haloperidol implant
Description: as §1

T1 sequence (Q15303 26-1308): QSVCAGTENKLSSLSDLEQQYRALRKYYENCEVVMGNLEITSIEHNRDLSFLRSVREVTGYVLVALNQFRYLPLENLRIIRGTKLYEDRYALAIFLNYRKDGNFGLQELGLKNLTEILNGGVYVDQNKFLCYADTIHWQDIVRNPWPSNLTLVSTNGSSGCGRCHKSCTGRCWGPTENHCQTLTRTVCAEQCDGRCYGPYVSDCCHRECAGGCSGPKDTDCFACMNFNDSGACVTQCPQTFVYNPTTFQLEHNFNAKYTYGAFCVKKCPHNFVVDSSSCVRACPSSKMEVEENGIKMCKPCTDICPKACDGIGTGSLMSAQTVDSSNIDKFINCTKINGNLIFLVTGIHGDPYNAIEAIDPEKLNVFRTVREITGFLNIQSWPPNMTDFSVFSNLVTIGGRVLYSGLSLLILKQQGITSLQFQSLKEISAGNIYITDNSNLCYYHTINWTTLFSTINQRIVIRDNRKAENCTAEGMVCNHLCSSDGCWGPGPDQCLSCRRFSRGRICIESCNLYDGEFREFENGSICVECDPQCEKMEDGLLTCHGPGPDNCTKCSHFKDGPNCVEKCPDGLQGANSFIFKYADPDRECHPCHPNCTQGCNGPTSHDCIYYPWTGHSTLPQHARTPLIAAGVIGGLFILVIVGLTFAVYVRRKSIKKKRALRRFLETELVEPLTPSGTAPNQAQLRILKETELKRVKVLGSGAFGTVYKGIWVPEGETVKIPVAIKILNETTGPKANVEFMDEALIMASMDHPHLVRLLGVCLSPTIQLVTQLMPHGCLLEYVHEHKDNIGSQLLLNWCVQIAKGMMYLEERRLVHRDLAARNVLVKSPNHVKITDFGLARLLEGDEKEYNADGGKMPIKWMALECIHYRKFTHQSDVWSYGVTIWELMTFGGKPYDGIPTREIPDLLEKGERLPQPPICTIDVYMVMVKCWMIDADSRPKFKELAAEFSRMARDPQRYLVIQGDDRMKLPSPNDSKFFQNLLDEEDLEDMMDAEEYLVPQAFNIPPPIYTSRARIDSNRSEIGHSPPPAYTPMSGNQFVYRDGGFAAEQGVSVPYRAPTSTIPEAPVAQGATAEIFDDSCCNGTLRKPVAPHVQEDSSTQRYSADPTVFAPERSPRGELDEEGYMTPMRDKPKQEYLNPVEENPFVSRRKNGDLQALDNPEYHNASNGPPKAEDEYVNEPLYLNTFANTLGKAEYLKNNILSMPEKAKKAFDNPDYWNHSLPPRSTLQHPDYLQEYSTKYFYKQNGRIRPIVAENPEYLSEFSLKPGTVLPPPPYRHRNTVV

Row | Molecule | tyrosine phosphorylation of erbB4 [1] | NRG1-induced erbB4 activation (pY-erbB4 over erbB4), haloperidol treated vs vehicle mice [2] | concentration at 12 weeks [3]
1 | CN[C@H](CC(=O)O)C(=O)O [NMDA, N-methyl-Daspartate] | did not enhance |  | 
2 | O=C(CCCN1CCC(O)(c2ccc(Cl)cc2)CC1)c1ccc(F)cc1 [haloperidol] |  | significantly reduced; also recorded: attenuated | 3.1 ng/mL
3 | BDNF: another trophic factor for a different tyrosine kinase receptor (protein, UniProt P23560 19-247, looked up) Neurotrophic factor BDNF …: APMKEANIRGQGGLAYPGVRTHGTLESVNGPKAGSRGLTSLADTFEHVIEELLDEDQKVRPNEENNKDADLYTSRVMLSSQVPLEPPLLFLLEEYKNYLDAANMSMRVRRHSDPARRGELSVCDSISEWVTAADKKTAVDMSGGTVTVLEKVPVSKGQLKQYFYETKCNPMGYTKEGCRGIDKRHWNSQCRTTQSYVRALTMDSKKRIGWRFIRIDTSCVCTLTIKRGR | Neither enhanced |  | 
